# Test results published in ChEMBL document CHEMBL5052853, “Isoxazole derivatives targeting tacc3 as anticancer agents” (2021).
# Calls of active or inactive are those of the source. No cut-off for these calls is given here.
# Experiments:
# JIMT-1 [1] = assay: Antiproliferative activity against human JIMT-1 cells after 72 hrs by SRB assay; assay type: functional, cell-based; details: JIMT-1, 72 h
# JIMT-1 [2] = assay: Stabilization of human TACC3 expressed in JIMT-1 cells at 1 uM incubated for 6 hrs by cellular thermal shift assay; assay type: cell-based
# [3] = Binding affinity to purified recombinant human TACC3 by isothermal titration calorimetry
# JIMT-1 [4] = assay: Stabilization of human TACC3 expressed in JIMT-1 cells at 10 uM incubated for 20 mins and measured in presence of pronase by drug affinity responsive target stability assay; assay type: cell-based
# JIMT-1 [5] = assay: Inhibition of colony formation in human JIMT-1 cells at 0.1 to 1 uM assessed as decrease in colony number incubated for 12 days by crystal violet staining based assay; assay type: functional, cell-based; details: dose 0.1-1 µM, time 12.0 day
# JIMT-1 [6] = assay: Induction of mitotic arrest in human JIMT-1 cells assessed as change in p-histone H3 levels and measured by Western blot analysis; assay type: functional, cell-based; details: dose 0.1-5 µM
# JIMT-1 [7] = assay: Induction of apoptosis in human JIMT-1 cells assessed as change in cleaved caspase-3 levels and measured by Western blot analysis; assay type: functional, cell-based; details: dose 0.1-5 µM
# JIMT-1 [8] = assay: Induction of apoptosis in human JIMT-1 cells assessed as change in cleaved PARP levels and measured by Western blot analysis; assay type: functional, cell-based; details: dose 0.1-5 µM
# JIMT-1 [9] = assay: Induction of DNA damage in human JIMT-1 cells assessed as change in p-H2AX levels and measured by Western blot analysis; assay type: functional, cell-based; details: dose 0.1-5 µM
# JIMT-1 [10] = assay: Induction of apoptosis in human JIMT-1 cells assessed as increase in apoptotic cells at 500 nM measured by Annexin-V and PI staining method (reference value: 4.1 +/- 0.3 %); assay type: functional
# JIMT-1 [11] = assay: Induction of mitotic arrest in human JIMT-1 cells assessed as increase in aberrant spindle formation at 200 to 500 nM measured by DAPI staining method; assay type: functional, cell-based; details: dose 200-500 nM
# JIMT-1 [12] = assay: Induction of mitotic arrest in human JIMT-1 cells assessed as increase in multipolar spindles formation at 200 to 500 nM; assay type: functional, cell-based; details: dose 200-500 nM
# JIMT-1 [13] = assay: Induction of mitotic arrest in human JIMT-1 cells assessed as increased localization of spindle assembly checkpoint marker BuBR1 to chromosomes at 500 nM measured by immunofluorescence staining method; assay type: functional, cell-based
# JIMT-1 [14] = assay: Induction of mitotic arrest in human JIMT-1 cells at 200 nM assessed as change in p-histone H3 levels in presence of Mps1 inhibitor TC Mps1 and measured by Western blot analysis; assay type: functional, cell-based
# JIMT-1 [15] = assay: Induction of apoptosis in human JIMT-1 cells at 200 nM assessed as change in cleaved PARP levels in presence of Mps1 inhibitor TC Mps1 and measured by Western blot analysis; assay type: functional, cell-based
# JIMT-1 [16] = assay: Induction of DNA damage in human JIMT-1 cells at 200 nM assessed as change in p-H2AX levels in presence of Mps1 inhibitor TC Mps1 and measured by Western blot analysis; assay type: functional, cell-based
# RT-112 [17] = assay: Antiproliferative activity against human RT-112 cells after 3 days by SRB assay; assay type: functional, cell-based; details: RT-112, 72 h
# RT-4 = assay: Antiproliferative activity against human RT-4 cells after 3 days by SRB assay; assay type: functional, cell-based; details: RT-4, 72 h
# RT-112 [18] = assay: Induction of mitotic arrest in human RT-112 cells assessed as decrease in ERK1/2 phosphorylation at 5 uM measured by western blot analysis; assay type: functional, cell-based
# MCF-12A = assay: Antiproliferative activity against human MCF-12A cells; assay type: functional, cell-based
# MDA-MB-231 = assay: Antiproliferative activity against human MDA-MB-231 cells; assay type: functional, cell-based
# CAL-51 = assay: Antiproliferative activity against human CAL-51 cells; assay type: functional, cell-based
# HCC1143 = assay: Antiproliferative activity against human HCC1143 cells; assay type: functional, cell-based
# HCC1954 = assay: Antiproliferative activity against human HCC1954 cells; assay type: functional, cell-based
# JIMT-1 [19] = assay: Antitumor activity in human JIMT-1 cells xenografted female immunodeficient nude mouse at 5 mg/kg, po administered every other day for 30 days; assay type: functional, organism-based; details: time 30.0 day
# [20] = Toxicity in human JIMT-1 cells xenografted female immunodeficient nude mouse assessed as effect on body weight at 5 mg/kg, po administered every other day for 30 days; assay type: organism-based; details: in vivo, 720 h, time 30 day
# JIMT-1 [21] = assay: Antitumor activity in human JIMT-1 cells xenografted female nude mouse at 2 mg/kg, po administered every other day; assay type: functional, organism-based
# JIMT-1 [22] = assay: Antitumor activity in human JIMT-1 cells xenografted female nude mouse at 2 mg/kg, iv administered once every 2 weeks; assay type: functional, organism-based
# JIMT-1 [23] = assay: Antitumor activity in human JIMT-1 cells xenografted female nude mouse at 5 mg/kg, po administered every other day; assay type: functional, organism-based
# [24] = Toxicity in human JIMT-1 cells xenografted female nude mouse assessed as effect on body weight at 2 mg/kg, po administered every other day; assay type: organism-based; details: in vivo
# [25] = Toxicity in human JIMT-1 cells xenografted female nude mouse assessed as effect on body weight at 2 mg/kg, iv administered once every 2 weeks; assay type: organism-based; details: in vivo, 336 h
# [26] = Toxicity in human JIMT-1 cells xenografted female nude mouse assessed as effect on body weight at 5 mg/kg, po administered every other day; assay type: organism-based; details: in vivo
# JIMT-1 [27] = assay: Antitumor activity in human JIMT-1 cells xenografted female nude mouse at 25 mg/kg, po administered for 23 days; assay type: functional, organism-based; details: time 23.0 day
# [28] = Toxicity in human JIMT-1 cells xenografted female nude mouse assessed as effect on body weight at 25 mg/kg, po administered for 23 days; assay type: organism-based; details: in vivo, 552 h, time 23 day
# EMT6 = assay: Antitumor activity in mouse EMT6 xenografted cells syngeneic Balb/c mouse
# [29] = Toxicity in mouse EMT6 cells xenografted syngeneic Balb/c mouse assessed as animal survival rate measured by Kaplan-Meier plot analysis; details: in vivo
# [30] = Toxicity in mouse EMt6 cells xenografted syngeneic Balb/c mouse assessed as effect on body weight; details: in vivo
# HCT-116 = assay: Antitumor activity in human HCT-116 cells xenografted immunocompromised female nude mouse at 25 to 50 mg/kg, po administered daily; assay type: functional, organism-based; details: dose 25-50 mg/kg
# [31] = Toxicity in human HCT-116 cells xenografted immunocompromised female nude mouse assessed as effect on body weight at 25 to 50 mg/kg, po administered daily; assay type: organism-based; details: in vivo, dose 25-50 mg/kg
# CT26 = assay: Antitumor activity in mouse CT26 cells xenografted syngeneic immunocompetent Balb/c mouse at 25 to 50 mg/kg, po administered daily; assay type: functional, organism-based; details: dose 25-50 mg/kg
# [32] = Toxicity in mouse CT26 cells xenografted syngeneic immunocompetent Balb/c mouse assessed as effect on body weight at 25 to 50 mg/kg, po administered daily; assay type: organism-based; details: in vivo, dose 25-50 mg/kg
# 4T1 = assay: Antitumor activity in mouse 4T1-Luc cells xenografted immunocompetent female mouse assessed as impairment of metastatic growth at 50 mg/kg, po administered every day; assay type: functional, organism-based
# [33] = Toxicity in mouse 4T1-Luc cells xenografted immunocompetent female mouse assessed as animal survival at 50 mg/kg, po administered every day; assay type: organism-based; details: in vivo
# [34] = Toxicity in female nude mouse assessed as body weight at 100 mg/kg, po after 1 day of administration; assay type: organism-based; details: in vivo, 24 h
# [35] = Toxicity in female nude mouse assessed as body weight at 100 mg/kg, po after 2 days of administration; assay type: organism-based; details: in vivo, 48 h, time 2 day
# [36] = Toxicity in female nude mouse assessed as body weight at 100 mg/kg, po after 3 days of administration; assay type: organism-based; details: in vivo, 72 h, time 3 day
# [37] = Toxicity in female nude mouse assessed as body weight at 100 mg/kg, po after 4 days of administration; assay type: organism-based; details: in vivo, 96 h, time 4 day
# [38] = Toxicity in female nude mouse assessed as body weight at 100 mg/kg, po after 5 days of administration; assay type: organism-based; details: in vivo, 120 h, time 5 day
# [39] = Toxicity in female nude mouse assessed as body weight at 100 mg/kg, po after 6 days of administration; assay type: organism-based; details: in vivo, 144 h, time 6 day
# [40] = Toxicity in female nude mouse assessed as body weight at 100 mg/kg, po after 7 days of administration; assay type: organism-based; details: in vivo, 168 h, time 7 day
# [41] = Toxicity in female nude mouse assessed as body weight at 500 mg/kg, po administered once and measured after 1 day of administration; assay type: organism-based; details: in vivo, 24 h
# [42] = Toxicity in female nude mouse assessed as body weight at 500 mg/kg, po administered once and measured after 2 days of administration; assay type: organism-based; details: in vivo, 48 h, time 2 day
# [43] = Toxicity in female nude mouse assessed as body weight at 500 mg/kg, po administered once and measured after 3 days of administration; assay type: organism-based; details: in vivo, 72 h, time 3 day
# [44] = Toxicity in female nude mouse assessed as organ toxicity at 500 mg/kg, po administered once for 1 to 3 days; assay type: organism-based; details: in vivo, time 1-3 day
# [45] = Kinetic solubility in sodium phosphate buffer at pH 7.4 at 25 degree C after 2 hrs; assay type: physicochemical; details: read-out: Kinetic_solubility
# [46] = Plasma protein binding in human assessed as unbound fraction; assay type: ADME, cell-free
smiles,measurement,setting,value
COc1ccc(-c2cc(Nc3ccnc(N4CCOCC4)n3)on2)cc1,IC50,JIMT-1 [1],120 nM
same,Activity,JIMT-1 [2],Active
same,Kd,[3],1.5 nM
same,Activity,JIMT-1 [4],Active
same,Activity,JIMT-1 [5],Active
same,Activity,JIMT-1 [6],Dose-Dependent Effect
same,Activity,JIMT-1 [7],Dose-Dependent Effect
same,Activity,JIMT-1 [8],Dose-Dependent Effect
same,Activity,JIMT-1 [9],Dose-Dependent Effect
same,Activity,JIMT-1 [10],45.6%
same,Activity,JIMT-1 [11],Active
same,Activity,JIMT-1 [12],Active
same,Activity,JIMT-1 [13],Active
same,Activity,JIMT-1 [14],Active
same,Activity,JIMT-1 [15],Active
same,Activity,JIMT-1 [16],Active
same,IC50,RT-112 [17],300 nM
same,IC50,RT-4,3660 nM
same,Activity,RT-112 [18],Active
same,IC50,MCF-12A,> 10000 nM
same,Activity,MDA-MB-231,Active
same,Activity,CAL-51,Active
same,Activity,HCC1143,Active
same,Activity,HCC1954,Active
same,Activity,JIMT-1 [19],Active
same,Activity,[20],Non-Toxic
same,Activity,JIMT-1 [21],Active
same,Activity,JIMT-1 [22],Active
same,Activity,JIMT-1 [23],Active
same,Activity,[24],Non-Toxic
same,Activity,[25],Non-Toxic
same,Activity,[26],Non-Toxic
same,Activity,JIMT-1 [27],Active
same,Activity,[28],Non-Toxic
same,Activity,EMT6,Active
same,MSD,[29],22 days
same,Activity,[30],Non-Toxic
same,Activity,HCT-116,Active
same,Activity,[31],Non-Toxic
same,Activity,CT26,Active
same,Activity,[32],Non-Toxic
same,Activity,4T1,Active
same,MSD,[33],28 days
same,Activity,[34],17.4 g
same,Activity,[35],16.2 g
same,Activity,[36],16.3 g
same,Activity,[37],17 g
same,Activity,[38],16.5 g
same,Activity,[39],16.7 g
same,Activity,[40],16.8 g
same,Activity,[41],21.1 g
same,Activity,[42],20.9 g
same,Activity,[43],21.5 g
same,Activity,[44],Non-Toxic
same,solubility kinetic at 2 h,[45],< 1 µM
same,Activity,[46],1.13%
